# From the kinase profiling compilation of Christmann-Franck et al. (2016)
# Biological target: CSNK1G2 (human) (UniProt P78368)
# Assay: radiometric filter-binding kinase assay, Kinase HotSpot
# Settings: compound 0.5 µM; ATP 10 µM
row,Structure (SMILES),residual activity
1,N#C/C(=C1/Nc2ccccc2S1)c1ccnc(NCCc2cccnc2)n1,87%
2,COc1cc2c(Nc3ccc(Br)cc3F)ncnc2cc1OCC1CCN(C)CC1,98.5%
3,N/C(=N\N=C/c1ccc(-c2cccc([N+](=O)[O-])c2)o1)N[N+](=O)[O-],101%
4,CCCCc1c(-c2ccc(O)cc2)[nH]c2nccnc12,78.5%
5,O=S(=O)(NCCNC/C=C/c1ccc(Br)cc1)c1cccc2cnccc12,86.8%

# Biological target: HIPK2 (human) (UniProt Q9H2X6)
# Assay: as above
# Settings: compound 0.5 µM; ATP 10 µM
row,Structure (SMILES),residual activity
1,N#C/C(=C1/Nc2ccccc2S1)c1ccnc(NCCc2cccnc2)n1,95.8%
2,COc1cc2c(Nc3ccc(Br)cc3F)ncnc2cc1OCC1CCN(C)CC1,99.4%
3,N/C(=N\N=C/c1ccc(-c2cccc([N+](=O)[O-])c2)o1)N[N+](=O)[O-],103%
4,CCCCc1c(-c2ccc(O)cc2)[nH]c2nccnc12,88.5%
5,O=S(=O)(NCCNC/C=C/c1ccc(Br)cc1)c1cccc2cnccc12,99.2%

# Biological target: PBK (human) (UniProt Q96KB5)
# Assay: as above
# Settings: compound 0.5 µM; ATP 10 µM
# Chain of PBK (human) (Q96KB5 whole entry, looked up): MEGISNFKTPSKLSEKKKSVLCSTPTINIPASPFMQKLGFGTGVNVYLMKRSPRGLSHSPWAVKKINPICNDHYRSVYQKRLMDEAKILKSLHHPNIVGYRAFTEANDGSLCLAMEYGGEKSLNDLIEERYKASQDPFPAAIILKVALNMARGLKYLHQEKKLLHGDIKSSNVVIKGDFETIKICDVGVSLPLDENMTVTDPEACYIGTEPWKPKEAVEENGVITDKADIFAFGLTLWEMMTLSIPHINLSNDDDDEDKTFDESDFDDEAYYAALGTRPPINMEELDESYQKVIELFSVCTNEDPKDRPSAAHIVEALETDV
row,Structure (SMILES),residual activity
1,N#C/C(=C1/Nc2ccccc2S1)c1ccnc(NCCc2cccnc2)n1,99.7%
2,COc1cc2c(Nc3ccc(Br)cc3F)ncnc2cc1OCC1CCN(C)CC1,98.9%
3,N/C(=N\N=C/c1ccc(-c2cccc([N+](=O)[O-])c2)o1)N[N+](=O)[O-],111%
4,CCCCc1c(-c2ccc(O)cc2)[nH]c2nccnc12,75.6%
5,O=S(=O)(NCCNC/C=C/c1ccc(Br)cc1)c1cccc2cnccc12,107%

# Biological target: MET (human) (UniProt P08581)
# Assay: as above
# Settings: compound 0.5 µM; ATP 10 µM
row,Structure (SMILES),residual activity
1,N#C/C(=C1/Nc2ccccc2S1)c1ccnc(NCCc2cccnc2)n1,105%
2,N/C(=N\N=C/c1ccc(-c2cccc([N+](=O)[O-])c2)o1)N[N+](=O)[O-],96.3%
3,CCCCc1c(-c2ccc(O)cc2)[nH]c2nccnc12,82.7%

# Biological target: CDC42BPB (human) (UniProt Q9Y5S2)
# Assay: as above
# Settings: compound 0.5 µM; ATP 10 µM
# Chain of CDC42BPB (human) (Q9Y5S2 whole entry, looked up): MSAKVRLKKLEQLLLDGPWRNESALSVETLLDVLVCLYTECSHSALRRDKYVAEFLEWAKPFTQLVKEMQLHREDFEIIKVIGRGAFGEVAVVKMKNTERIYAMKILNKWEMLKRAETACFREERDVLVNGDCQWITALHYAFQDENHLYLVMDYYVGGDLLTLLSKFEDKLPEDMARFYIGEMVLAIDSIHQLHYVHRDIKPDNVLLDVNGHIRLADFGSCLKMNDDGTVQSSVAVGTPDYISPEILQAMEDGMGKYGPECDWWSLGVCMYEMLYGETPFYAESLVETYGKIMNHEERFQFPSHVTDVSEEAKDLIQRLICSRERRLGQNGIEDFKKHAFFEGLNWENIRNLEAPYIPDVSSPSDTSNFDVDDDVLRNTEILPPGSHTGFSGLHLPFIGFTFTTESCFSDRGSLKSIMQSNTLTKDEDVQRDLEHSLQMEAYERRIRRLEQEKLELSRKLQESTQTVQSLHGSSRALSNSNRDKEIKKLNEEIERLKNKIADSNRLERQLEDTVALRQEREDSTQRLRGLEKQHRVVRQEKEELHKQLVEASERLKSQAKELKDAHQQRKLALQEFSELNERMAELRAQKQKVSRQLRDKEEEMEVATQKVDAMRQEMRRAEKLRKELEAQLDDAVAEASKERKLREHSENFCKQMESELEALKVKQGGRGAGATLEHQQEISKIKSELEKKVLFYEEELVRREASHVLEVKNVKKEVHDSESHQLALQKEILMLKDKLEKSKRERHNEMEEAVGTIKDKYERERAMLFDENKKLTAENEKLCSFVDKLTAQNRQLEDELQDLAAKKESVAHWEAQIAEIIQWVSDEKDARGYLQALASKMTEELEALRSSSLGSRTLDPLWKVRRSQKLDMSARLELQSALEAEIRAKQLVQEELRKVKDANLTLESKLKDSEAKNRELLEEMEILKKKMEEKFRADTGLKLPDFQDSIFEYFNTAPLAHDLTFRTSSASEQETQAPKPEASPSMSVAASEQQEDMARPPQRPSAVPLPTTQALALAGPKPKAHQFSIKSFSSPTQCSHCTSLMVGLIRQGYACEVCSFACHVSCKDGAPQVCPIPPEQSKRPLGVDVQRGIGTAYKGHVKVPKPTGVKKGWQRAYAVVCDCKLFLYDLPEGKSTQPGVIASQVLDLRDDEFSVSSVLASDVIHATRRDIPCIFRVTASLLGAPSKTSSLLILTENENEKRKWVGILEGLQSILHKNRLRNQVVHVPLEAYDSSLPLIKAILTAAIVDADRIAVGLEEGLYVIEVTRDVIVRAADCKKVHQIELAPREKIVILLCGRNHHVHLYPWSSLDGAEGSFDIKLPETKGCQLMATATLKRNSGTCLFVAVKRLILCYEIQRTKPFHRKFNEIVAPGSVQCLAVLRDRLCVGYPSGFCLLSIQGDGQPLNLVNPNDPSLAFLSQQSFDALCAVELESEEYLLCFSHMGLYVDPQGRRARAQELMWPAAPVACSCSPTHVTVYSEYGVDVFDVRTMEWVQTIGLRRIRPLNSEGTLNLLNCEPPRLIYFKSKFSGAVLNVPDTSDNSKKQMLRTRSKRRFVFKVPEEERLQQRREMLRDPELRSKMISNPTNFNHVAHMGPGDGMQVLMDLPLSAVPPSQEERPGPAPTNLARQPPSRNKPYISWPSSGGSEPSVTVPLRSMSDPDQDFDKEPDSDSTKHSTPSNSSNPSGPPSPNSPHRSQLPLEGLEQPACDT
row,Structure (SMILES),residual activity
1,N#C/C(=C1/Nc2ccccc2S1)c1ccnc(NCCc2cccnc2)n1,95.2%
2,COc1cc2c(Nc3ccc(Br)cc3F)ncnc2cc1OCC1CCN(C)CC1,98%
3,N/C(=N\N=C/c1ccc(-c2cccc([N+](=O)[O-])c2)o1)N[N+](=O)[O-],95.4%
4,O=S(=O)(NCCNC/C=C/c1ccc(Br)cc1)c1cccc2cnccc12,99.5%

# Biological target: GSK3B (human) (UniProt P49841)
# Assay: as above
# Settings: compound 0.5 µM; ATP 10 µM
row,Structure (SMILES),residual activity
1,N#C/C(=C1/Nc2ccccc2S1)c1ccnc(NCCc2cccnc2)n1,6.2%
2,COc1cc2c(Nc3ccc(Br)cc3F)ncnc2cc1OCC1CCN(C)CC1,101%
3,N/C(=N\N=C/c1ccc(-c2cccc([N+](=O)[O-])c2)o1)N[N+](=O)[O-],117%
4,CCCCc1c(-c2ccc(O)cc2)[nH]c2nccnc12,75.4%
5,O=S(=O)(NCCNC/C=C/c1ccc(Br)cc1)c1cccc2cnccc12,83.5%

# Biological target: PLK2 (human) (UniProt Q9NYY3)
# Assay: as above
# Settings: compound 0.5 µM; ATP 10 µM
# Chain of PLK2 (human) (Q9NYY3 whole entry, looked up): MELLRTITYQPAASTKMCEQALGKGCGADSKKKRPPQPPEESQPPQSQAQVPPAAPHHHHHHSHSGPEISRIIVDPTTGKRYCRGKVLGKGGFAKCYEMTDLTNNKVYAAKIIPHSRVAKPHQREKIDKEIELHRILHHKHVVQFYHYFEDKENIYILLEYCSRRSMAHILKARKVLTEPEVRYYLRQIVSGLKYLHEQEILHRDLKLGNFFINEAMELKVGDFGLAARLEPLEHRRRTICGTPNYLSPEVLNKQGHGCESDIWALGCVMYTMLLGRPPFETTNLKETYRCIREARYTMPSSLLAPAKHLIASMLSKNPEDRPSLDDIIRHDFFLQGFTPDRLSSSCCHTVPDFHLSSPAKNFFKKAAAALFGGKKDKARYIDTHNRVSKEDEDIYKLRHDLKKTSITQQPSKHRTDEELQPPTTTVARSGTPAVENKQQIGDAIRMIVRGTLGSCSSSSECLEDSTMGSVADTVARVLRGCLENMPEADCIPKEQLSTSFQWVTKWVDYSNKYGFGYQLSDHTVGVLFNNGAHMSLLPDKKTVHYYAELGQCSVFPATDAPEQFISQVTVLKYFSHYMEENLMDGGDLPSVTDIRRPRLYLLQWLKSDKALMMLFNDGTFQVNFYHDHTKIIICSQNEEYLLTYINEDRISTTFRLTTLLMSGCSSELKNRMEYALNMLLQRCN
row,Structure (SMILES),residual activity
1,N#C/C(=C1/Nc2ccccc2S1)c1ccnc(NCCc2cccnc2)n1,95.8%
2,COc1cc2c(Nc3ccc(Br)cc3F)ncnc2cc1OCC1CCN(C)CC1,103%
3,N/C(=N\N=C/c1ccc(-c2cccc([N+](=O)[O-])c2)o1)N[N+](=O)[O-],107%
4,CCCCc1c(-c2ccc(O)cc2)[nH]c2nccnc12,83.9%

# Biological target: NEK11 (human) (UniProt Q8NG66)
# Assay: as above
# Settings: compound 0.5 µM; ATP 10 µM
row,Structure (SMILES),residual activity
1,N#C/C(=C1/Nc2ccccc2S1)c1ccnc(NCCc2cccnc2)n1,118%
2,COc1cc2c(Nc3ccc(Br)cc3F)ncnc2cc1OCC1CCN(C)CC1,103%
3,N/C(=N\N=C/c1ccc(-c2cccc([N+](=O)[O-])c2)o1)N[N+](=O)[O-],110%
4,CCCCc1c(-c2ccc(O)cc2)[nH]c2nccnc12,92.5%
5,O=S(=O)(NCCNC/C=C/c1ccc(Br)cc1)c1cccc2cnccc12,92.7%

# Biological target: CDK5 CDK5R1 p35 (human) (UniProt Q00535+Q15078)
# Assay: as above
# Settings: compound 0.5 µM; ATP 10 µM
row,Structure (SMILES),residual activity
1,N#C/C(=C1/Nc2ccccc2S1)c1ccnc(NCCc2cccnc2)n1,97.2%
2,COc1cc2c(Nc3ccc(Br)cc3F)ncnc2cc1OCC1CCN(C)CC1,107%
3,N/C(=N\N=C/c1ccc(-c2cccc([N+](=O)[O-])c2)o1)N[N+](=O)[O-],89.2%

# Biological target: ERBB2 (human) (UniProt P04626)
# Assay: as above
# Settings: compound 0.5 µM; ATP 10 µM
row,Structure (SMILES),residual activity
1,N#C/C(=C1/Nc2ccccc2S1)c1ccnc(NCCc2cccnc2)n1,104%
2,COc1cc2c(Nc3ccc(Br)cc3F)ncnc2cc1OCC1CCN(C)CC1,72.2%
3,N/C(=N\N=C/c1ccc(-c2cccc([N+](=O)[O-])c2)o1)N[N+](=O)[O-],100%
4,CCCCc1c(-c2ccc(O)cc2)[nH]c2nccnc12,97.7%
5,O=S(=O)(NCCNC/C=C/c1ccc(Br)cc1)c1cccc2cnccc12,119%

# Biological target: CHUK (human) (UniProt O15111)
# Assay: as above
# Settings: compound 0.5 µM; ATP 10 µM
row,Structure (SMILES),residual activity
1,N#C/C(=C1/Nc2ccccc2S1)c1ccnc(NCCc2cccnc2)n1,88.6%
2,COc1cc2c(Nc3ccc(Br)cc3F)ncnc2cc1OCC1CCN(C)CC1,96.6%
3,N/C(=N\N=C/c1ccc(-c2cccc([N+](=O)[O-])c2)o1)N[N+](=O)[O-],88.1%
4,CCCCc1c(-c2ccc(O)cc2)[nH]c2nccnc12,77.6%
5,O=S(=O)(NCCNC/C=C/c1ccc(Br)cc1)c1cccc2cnccc12,104%

# Biological target: IGF1R (human) (UniProt P08069)
# Assay: as above
# Settings: compound 0.5 µM; ATP 10 µM
# Chain of IGF1R (human) (P08069 whole entry, looked up): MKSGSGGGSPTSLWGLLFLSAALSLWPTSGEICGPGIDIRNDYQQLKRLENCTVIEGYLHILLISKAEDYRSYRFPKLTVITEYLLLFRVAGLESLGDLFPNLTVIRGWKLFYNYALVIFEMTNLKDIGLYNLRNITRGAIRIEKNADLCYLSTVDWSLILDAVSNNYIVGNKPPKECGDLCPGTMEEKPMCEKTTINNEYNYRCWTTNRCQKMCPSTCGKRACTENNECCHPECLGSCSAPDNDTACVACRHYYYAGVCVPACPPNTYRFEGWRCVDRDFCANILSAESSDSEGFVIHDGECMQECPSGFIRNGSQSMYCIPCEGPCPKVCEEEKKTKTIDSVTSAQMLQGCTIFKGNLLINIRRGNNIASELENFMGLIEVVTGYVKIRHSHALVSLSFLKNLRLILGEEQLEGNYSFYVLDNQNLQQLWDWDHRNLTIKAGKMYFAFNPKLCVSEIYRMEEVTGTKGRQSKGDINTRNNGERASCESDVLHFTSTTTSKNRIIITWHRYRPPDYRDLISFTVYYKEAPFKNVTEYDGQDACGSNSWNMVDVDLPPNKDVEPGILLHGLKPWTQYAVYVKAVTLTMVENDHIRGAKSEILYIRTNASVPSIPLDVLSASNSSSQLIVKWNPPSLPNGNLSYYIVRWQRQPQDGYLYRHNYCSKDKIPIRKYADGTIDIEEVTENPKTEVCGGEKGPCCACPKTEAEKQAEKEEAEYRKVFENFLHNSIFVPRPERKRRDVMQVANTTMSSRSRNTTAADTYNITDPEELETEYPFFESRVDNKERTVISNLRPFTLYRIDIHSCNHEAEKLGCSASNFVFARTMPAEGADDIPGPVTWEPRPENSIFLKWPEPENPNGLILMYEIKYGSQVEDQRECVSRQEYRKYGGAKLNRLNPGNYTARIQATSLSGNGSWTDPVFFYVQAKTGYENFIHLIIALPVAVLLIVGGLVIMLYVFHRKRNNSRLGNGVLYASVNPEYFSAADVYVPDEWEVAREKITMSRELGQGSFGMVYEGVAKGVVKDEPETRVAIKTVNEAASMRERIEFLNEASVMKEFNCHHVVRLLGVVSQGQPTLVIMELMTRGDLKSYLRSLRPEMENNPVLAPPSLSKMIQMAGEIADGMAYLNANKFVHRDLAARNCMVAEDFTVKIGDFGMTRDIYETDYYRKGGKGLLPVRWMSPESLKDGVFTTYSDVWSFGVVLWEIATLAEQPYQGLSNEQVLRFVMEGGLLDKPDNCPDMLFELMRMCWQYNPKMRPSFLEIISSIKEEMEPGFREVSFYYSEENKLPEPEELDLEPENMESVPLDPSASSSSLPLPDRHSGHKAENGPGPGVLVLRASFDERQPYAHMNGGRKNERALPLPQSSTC
row,Structure (SMILES),residual activity
1,N#C/C(=C1/Nc2ccccc2S1)c1ccnc(NCCc2cccnc2)n1,100%
2,COc1cc2c(Nc3ccc(Br)cc3F)ncnc2cc1OCC1CCN(C)CC1,94.6%
3,N/C(=N\N=C/c1ccc(-c2cccc([N+](=O)[O-])c2)o1)N[N+](=O)[O-],96.4%
4,CCCCc1c(-c2ccc(O)cc2)[nH]c2nccnc12,87.3%
5,O=S(=O)(NCCNC/C=C/c1ccc(Br)cc1)c1cccc2cnccc12,104%

# Biological target: MARK2 (human) (UniProt Q7KZI7)
# Assay: as above
# Settings: compound 0.5 µM; ATP 10 µM
row,Structure (SMILES),residual activity
1,N#C/C(=C1/Nc2ccccc2S1)c1ccnc(NCCc2cccnc2)n1,97.9%
2,COc1cc2c(Nc3ccc(Br)cc3F)ncnc2cc1OCC1CCN(C)CC1,107%
3,N/C(=N\N=C/c1ccc(-c2cccc([N+](=O)[O-])c2)o1)N[N+](=O)[O-],108%
4,CCCCc1c(-c2ccc(O)cc2)[nH]c2nccnc12,76.1%
5,O=S(=O)(NCCNC/C=C/c1ccc(Br)cc1)c1cccc2cnccc12,89.3%

# Biological target: ULK1 (human) (UniProt O75385)
# Assay: as above
# Settings: compound 0.5 µM; ATP 10 µM
row,Structure (SMILES),residual activity
1,N#C/C(=C1/Nc2ccccc2S1)c1ccnc(NCCc2cccnc2)n1,98.5%
2,COc1cc2c(Nc3ccc(Br)cc3F)ncnc2cc1OCC1CCN(C)CC1,95.7%
3,N/C(=N\N=C/c1ccc(-c2cccc([N+](=O)[O-])c2)o1)N[N+](=O)[O-],93.7%
4,CCCCc1c(-c2ccc(O)cc2)[nH]c2nccnc12,82.5%
5,O=S(=O)(NCCNC/C=C/c1ccc(Br)cc1)c1cccc2cnccc12,102%

# Biological target: NTRK3 (human) (UniProt Q16288)
# Assay: as above
# Settings: compound 0.5 µM; ATP 10 µM
row,Structure (SMILES),residual activity
1,N#C/C(=C1/Nc2ccccc2S1)c1ccnc(NCCc2cccnc2)n1,80.2%
2,COc1cc2c(Nc3ccc(Br)cc3F)ncnc2cc1OCC1CCN(C)CC1,72.2%
3,N/C(=N\N=C/c1ccc(-c2cccc([N+](=O)[O-])c2)o1)N[N+](=O)[O-],104%
4,CCCCc1c(-c2ccc(O)cc2)[nH]c2nccnc12,76.1%
5,O=S(=O)(NCCNC/C=C/c1ccc(Br)cc1)c1cccc2cnccc12,79.6%

# Biological target: PHKG1 (human) (UniProt Q16816)
# Assay: as above
# Settings: compound 0.5 µM; ATP 10 µM
# Chain of PHKG1 (human) (Q16816 whole entry, looked up): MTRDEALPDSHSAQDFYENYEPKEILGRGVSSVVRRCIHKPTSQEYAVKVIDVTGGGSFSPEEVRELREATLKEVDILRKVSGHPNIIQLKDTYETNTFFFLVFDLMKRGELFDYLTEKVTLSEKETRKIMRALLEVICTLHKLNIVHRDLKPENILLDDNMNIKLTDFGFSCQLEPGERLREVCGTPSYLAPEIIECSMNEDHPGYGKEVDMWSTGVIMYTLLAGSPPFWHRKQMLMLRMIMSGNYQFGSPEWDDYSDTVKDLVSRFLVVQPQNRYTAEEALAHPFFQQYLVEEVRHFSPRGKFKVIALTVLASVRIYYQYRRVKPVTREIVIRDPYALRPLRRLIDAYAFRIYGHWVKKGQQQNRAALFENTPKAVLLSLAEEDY
row,Structure (SMILES),residual activity
1,N#C/C(=C1/Nc2ccccc2S1)c1ccnc(NCCc2cccnc2)n1,89%
2,COc1cc2c(Nc3ccc(Br)cc3F)ncnc2cc1OCC1CCN(C)CC1,55.5%
3,N/C(=N\N=C/c1ccc(-c2cccc([N+](=O)[O-])c2)o1)N[N+](=O)[O-],101%
4,CCCCc1c(-c2ccc(O)cc2)[nH]c2nccnc12,86.7%
5,O=S(=O)(NCCNC/C=C/c1ccc(Br)cc1)c1cccc2cnccc12,91.6%

# Biological target: DDR2 (human) (UniProt Q16832)
# Assay: as above
# Settings: compound 0.5 µM; ATP 10 µM
row,Structure (SMILES),residual activity
1,N#C/C(=C1/Nc2ccccc2S1)c1ccnc(NCCc2cccnc2)n1,94.5%
2,COc1cc2c(Nc3ccc(Br)cc3F)ncnc2cc1OCC1CCN(C)CC1,68%
3,N/C(=N\N=C/c1ccc(-c2cccc([N+](=O)[O-])c2)o1)N[N+](=O)[O-],101%
4,CCCCc1c(-c2ccc(O)cc2)[nH]c2nccnc12,96%
5,O=S(=O)(NCCNC/C=C/c1ccc(Br)cc1)c1cccc2cnccc12,93.8%

# Biological target: MAP3K2 (human) (UniProt Q9Y2U5)
# Assay: as above
# Settings: compound 0.5 µM; ATP 10 µM
# Chain of MAP3K2 (human) (Q9Y2U5 whole entry, looked up): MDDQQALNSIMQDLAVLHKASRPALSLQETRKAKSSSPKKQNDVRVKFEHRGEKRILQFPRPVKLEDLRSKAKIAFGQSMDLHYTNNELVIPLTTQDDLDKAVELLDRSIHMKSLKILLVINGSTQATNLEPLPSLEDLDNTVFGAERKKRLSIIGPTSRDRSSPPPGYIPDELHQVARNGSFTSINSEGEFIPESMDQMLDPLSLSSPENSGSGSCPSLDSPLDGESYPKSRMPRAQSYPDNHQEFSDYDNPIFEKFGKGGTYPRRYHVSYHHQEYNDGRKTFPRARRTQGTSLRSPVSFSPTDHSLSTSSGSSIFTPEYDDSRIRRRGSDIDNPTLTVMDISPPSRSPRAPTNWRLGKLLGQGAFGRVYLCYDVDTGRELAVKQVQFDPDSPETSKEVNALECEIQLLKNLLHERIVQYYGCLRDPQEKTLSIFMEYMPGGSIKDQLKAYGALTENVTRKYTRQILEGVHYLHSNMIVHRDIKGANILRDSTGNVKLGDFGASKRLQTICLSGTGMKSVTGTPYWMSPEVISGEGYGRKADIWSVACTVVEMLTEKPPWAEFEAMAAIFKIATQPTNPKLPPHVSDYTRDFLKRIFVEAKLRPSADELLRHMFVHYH
row,Structure (SMILES),residual activity
1,N#C/C(=C1/Nc2ccccc2S1)c1ccnc(NCCc2cccnc2)n1,98.1%
2,COc1cc2c(Nc3ccc(Br)cc3F)ncnc2cc1OCC1CCN(C)CC1,108%
3,N/C(=N\N=C/c1ccc(-c2cccc([N+](=O)[O-])c2)o1)N[N+](=O)[O-],97%
4,CCCCc1c(-c2ccc(O)cc2)[nH]c2nccnc12,77.2%
5,O=S(=O)(NCCNC/C=C/c1ccc(Br)cc1)c1cccc2cnccc12,91.5%

# Biological target: TSSK1B (human) (UniProt Q9BXA7)
# Assay: as above
# Settings: compound 0.5 µM; ATP 10 µM
row,Structure (SMILES),residual activity
1,N#C/C(=C1/Nc2ccccc2S1)c1ccnc(NCCc2cccnc2)n1,99%
2,COc1cc2c(Nc3ccc(Br)cc3F)ncnc2cc1OCC1CCN(C)CC1,96.6%
3,N/C(=N\N=C/c1ccc(-c2cccc([N+](=O)[O-])c2)o1)N[N+](=O)[O-],96.7%
4,CCCCc1c(-c2ccc(O)cc2)[nH]c2nccnc12,62%
5,O=S(=O)(NCCNC/C=C/c1ccc(Br)cc1)c1cccc2cnccc12,93.5%

# Biological target: INSRR (human) (UniProt P14616)
# Assay: as above
# Settings: compound 0.5 µM; ATP 10 µM
row,Structure (SMILES),residual activity
1,N#C/C(=C1/Nc2ccccc2S1)c1ccnc(NCCc2cccnc2)n1,92.2%
2,COc1cc2c(Nc3ccc(Br)cc3F)ncnc2cc1OCC1CCN(C)CC1,105%
3,N/C(=N\N=C/c1ccc(-c2cccc([N+](=O)[O-])c2)o1)N[N+](=O)[O-],99.2%
4,CCCCc1c(-c2ccc(O)cc2)[nH]c2nccnc12,86.6%
5,O=S(=O)(NCCNC/C=C/c1ccc(Br)cc1)c1cccc2cnccc12,103%

# Biological target: CLK4 (human) (UniProt Q9HAZ1)
# Assay: as above
# Settings: compound 0.5 µM; ATP 10 µM
row,Structure (SMILES),residual activity
1,N#C/C(=C1/Nc2ccccc2S1)c1ccnc(NCCc2cccnc2)n1,43.8%
2,COc1cc2c(Nc3ccc(Br)cc3F)ncnc2cc1OCC1CCN(C)CC1,84.3%
3,N/C(=N\N=C/c1ccc(-c2cccc([N+](=O)[O-])c2)o1)N[N+](=O)[O-],103%
4,CCCCc1c(-c2ccc(O)cc2)[nH]c2nccnc12,64.3%
